Results reported in patent US8299086B2, “Pyrimidine derivatives” (Actelion Pharmaceuticals Ltd., priority 2007, dated 2012).

The molecules below were run against recombinant human S1P1 receptor (Homo sapiens, UniProt P21453) (assay: GTPγS assay to determine EC50 values). Conditions: 35S-GTPγS binding, membranes of CHO cells expressing recombinant human S1P1 receptor.
Type: biochemical
Procedure: GTPγS assay to determine EC50 values
GTPγS binding assays are performed in 96 well microtiter plates (Nunc, 442587) in a final volume of 200 μl, using membrane preparations of CHO cells expressing recombinant human S1P1 receptor. Assay conditions are 20 mM Hepes (Fluka, 54461), 100 mM NaCl (Fluka, 71378), 5 mM MgCl2 (Fluka, 63064), 0.1% BSA (Calbiochem, 126609), 1 μM GDP (Sigma, G-7127), 2.5% DMSO (Fluka, 41644), […] ^35S-GTPγS (Amersham Biosciences, SJ1320). The pH is 7.4. Test compounds are dissolved and diluted in 100% DMSO and pre-incubated at room temperature for 30 min in 150 μl of the above assay buffer, in the absence of ^35S-GTPγS. After addition of 50 μl of ^35S-GTPγS, the assay is incubated for 1 h at rt. The assay is terminated by transfer of the reaction mixture to a Multiscreen plate (Millipore, MAHFC1H60) using a cell harvester from Packard Biosciences, and the plates are washed with ice-cold 10 mM Na2HPO4/NaH2PO4 (70%/30%), dried, sealed at the bottom and, after addition of 25 μl MicroScint20 (Packard Biosciences, order#6013621), sealed on the top. Membrane-bound ^35S-GTPγS is measured with a TopCount from Packard Biosciences.
EC50 is the concentration of agonist inducing 50% of the maximal specific ^35S-GTPγS binding. Specific binding is determined by subtracting non-specific binding from maximal binding. Maximal binding is the amount of cpm bound to the Multiscreen plate in the presence of 10 μM of S1P. Non-specific binding is the amount of binding in the absence of an agonist in the assay.

Sequence of recombinant human S1P1 receptor (P21453 whole entry): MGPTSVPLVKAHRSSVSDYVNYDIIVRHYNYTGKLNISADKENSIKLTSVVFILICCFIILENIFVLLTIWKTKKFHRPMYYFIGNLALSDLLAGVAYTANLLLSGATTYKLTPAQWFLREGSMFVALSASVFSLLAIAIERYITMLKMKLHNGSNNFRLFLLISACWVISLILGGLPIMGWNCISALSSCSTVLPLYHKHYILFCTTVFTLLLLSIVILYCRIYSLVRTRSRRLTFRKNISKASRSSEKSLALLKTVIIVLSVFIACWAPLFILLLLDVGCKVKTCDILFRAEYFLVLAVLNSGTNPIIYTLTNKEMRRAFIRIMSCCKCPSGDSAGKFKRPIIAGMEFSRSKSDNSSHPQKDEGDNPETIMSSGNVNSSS

EC50	SMILES
> 10000 nM	CCN(CC)c1nc(C)cc(-c2nc(-c3ccc(CC(=O)N4CCC[C@H]4C(=O)O)cc3)no2)n1 [Example 132]

Same assay, conditions: 35S-GTPγS binding, membranes of CHO cells expressing recombinant human S1P1 receptor, pH 7.4

EC50	SMILES
1.15 nM	CCNc1nc(C)cc(-c2nc(-c3cc(C)c(OC[C@@H](O)CNC(=O)CO)c(CC)c3)no2)n1 [Example 1, N—((S)-3-{2-Ethyl-4-[5-(2-ethylamino-6-methyl-pyrimidin-4-yl)-[1,2,4]oxadiazol-3-yl]-6-methyl-phenoxy}-2-hydroxy-propyl)-2-hydroxy-acetamide]
44.6 nM	CCN(CC)c1nc(C)cc(-c2nc(-c3ccc(CC(=O)N4CC(C(=O)O)C4)cc3)no2)n1 [Example 131]
2 nM	CCc1cc(-c2noc(-c3cc(C)nc(NC(C)C)n3)n2)cc(C)c1CCC(=O)NCCC(=O)O [Example 134]
12.6 nM	CCc1cc(-c2noc(-c3cc(C)nc(NC(C)C)n3)n2)cc(C)c1CCC(=O)NCC(O)CO (centres unmarked) [Example 140]
331 nM	Cc1cc(-c2nc(-c3ccc(CC(O)CNCCO)cc3)no2)nc(NC(C)C)n1 (centres unmarked) [Example 154]

What follows are molecules tested on circulating lymphocytes (assay: Assessment of in vivo efficacy: circulating lymphocytes after oral administration). Conditions: Rattus norvegicus, Lymphocyte, po, 6 h, read-out: Lymphocyte counts.
Design: species or system Wistar rats
Procedure: Assessment of In vivo Efficacy
The efficacy of the compounds of formula (I) is assessed by measuring the circulating lymphocytes after oral administration of 3 to 30 mg/kg of a compound of formula (I) to normotensive male Wistar rats. The animals are housed in climate-controlled conditions with a 12 h-light/dark cycle, and have free access to normal rat chow and drinking water. Blood is collected before and 3, 6 and 24 h after drug administration. Full blood is subjected to hematology using Advia Hematology system (Bayer Diagnostics, Zurich, Switzerland).
All data are presented as mean±SEM. Statistical analyses are performed by analysis of variance (ANOVA) using Statistica (StatSoft) and the Student-Newman-Keuls procedure for multiple comparisons. The null hypothesis is rejected when p<0.05.

SMILES	change in vivo at 10 mg/kg
COc1cc(-c2noc(-c3cc(C)nc(NC(C)C)n3)n2)cc(C)c1OC[C@@H](O)CNC(=O)CO [Example 51, 2-hydroxy-N—((S)-2-hydroxy-3-{4-[5-(2-isopropylamino-6-methyl-pyrimidin-4-yl)-[1,2,4]oxadiazol-3-yl]-2-methoxy-6-methyl-phenoxy}-propyl)-acetamide]	-61 ± 2%
CCc1cc(-c2noc(-c3cc(C)nc(NC(C)C)n3)n2)cc(C)c1OC[C@@H](O)CO [Example 59, (S)-3-{2-ethyl-4-[5-(2-isopropylamino-6-methyl-pyrimidin-4-yl)-[1,2,4]oxadiazol-3-yl]-6-methyl-phenoxy}-propane-1,2-diol]	-69 ± 2%

Same assay, conditions: Rattus norvegicus, Lymphocyte; 6 h after oral administration of 10 mg/kg to normotensive male Wistar rats, compared to animals treated with vehicle only; mean±SEM; read-out: Lymphocyte counts

SMILES	change in vivo at 10 mg/kg
CCN(CC)c1nc(C)cc(-c2nc(-c3cc(C)c(OCC(O)CNC(=O)CO)c(C)c3)no2)n1 (racemic) [Example 10, rac-N-(3-{4-[5-(2-Diethylamino-6-methyl-pyrimidin-4-yl)-[1,2,4]oxadiazol-3-yl]-2,6-dimethyl-phenoxy}-2-hydroxy-propyl)-2-hydroxy-acetamide]	-50 ± 2%
CCNc1nc(C)cc(-c2nc(-c3cc(C)c(OCC(O)CO)c(C)c3)no2)n1 (racemic) [Example 16, rac-3-{4-[5-(2-Ethylamino-6-methyl-pyrimidin-4-yl)-[1,2,4]oxadiazol-3-yl]-2,6-dimethyl-phenoxy}-propane-1,2-diol]	-74 ± 1%
Cc1cc(-c2nc(-c3cc(C)c(OCC(O)CO)c(C)c3)no2)nc(NCC(C)C)n1 (racemic) [Example 20, rac-3-{4-[5-(2-Isobutylamino-6-methyl-pyrimidin-4-yl)-[1,2,4]oxadiazol-3-yl]-2,6-dimethyl-phenoxy}-propane-1,2-diol]	-55 ± 1%
CCNc1nc(C)cc(-c2nc(-c3cc(C)c(OC[C@@H](O)CNC(=O)CO)c(CC)c3)no2)n1 [Example 1, N—((S)-3-{2-Ethyl-4-[5-(2-ethylamino-6-methyl-pyrimidin-4-yl)-[1,2,4]oxadiazol-3-yl]-6-methyl-phenoxy}-2-hydroxy-propyl)-2-hydroxy-acetamide]	-70 ± 3%
CCc1cc(-c2noc(-c3cc(C)nc(N(CC)CC)n3)n2)cc(C)c1OC[C@@H](O)CNC(=O)CO [Example 3, N—((S)-3-{4-[5-(2-Diethylamino-6-methyl-pyrimidin-4-yl)-[1,2,4]oxadiazol-3-yl]-2-ethyl-6-methyl-phenoxy}-2-hydroxy-propyl)-2-hydroxy-acetamide]	-70 ± 2%
CCc1cc(-c2noc(-c3cc(C)nc(N(C)CC(C)C)n3)n2)cc(C)c1OC[C@@H](O)CNC(=O)CO [Example 29, N—[(S)-3-(2-ethyl-4-{5-[2-(isobutyl-methyl-amino)-6-methyl-pyrimidin-4-yl]-[1,2,4]oxadiazol-3-yl}-6-methyl-phenoxy)-2-hydroxy-propyl]-2-hydroxy-acetamide]	-73 ± 2%
CCc1cc(-c2noc(-c3cc(C)nc(NCC4CC4)n3)n2)cc(C)c1OC[C@@H](O)CNC(=O)CO [Example 32, N—[(S)-3-(4-{5-[2-(cyclopropylmethyl-amino)-6-methyl-pyrimidin-4-yl]-[1,2,4]oxadiazol-3-yl}-2-ethyl-6-methyl-phenoxy)-2-hydroxy-propyl]-2-hydroxy-acetamide]	-58 ± 1%
CCNc1nc(CC)cc(-c2nc(-c3cc(C)c(OC[C@@H](O)CNC(=O)CO)c(CC)c3)no2)n1 [Example 33, N—((S)-3-{2-ethyl-4-[5-(6-ethyl-2-ethylamino-pyrimidin-4-yl)-[1,2,4]oxadiazol-3-yl]-6-methyl-phenoxy}-2-hydroxy-propyl)-2-hydroxy-acetamide]	-65 ± 2%
CCc1cc(-c2noc(-c3cc(C)nc(OCC(C)C)n3)n2)cc(C)c1OC[C@@H](O)CNC(=O)CO [Example 40, N—((S)-3-{2-ethyl-4-[5-(2-isobutoxy-6-methyl-pyrimidin-4-yl)-[1,2,4]oxadiazol-3-yl]-6-methyl-phenoxy}-2-hydroxy-propyl)-2-hydroxy-acetamide]	-69 ± 2%
CCNc1nc(CC)cc(-c2nc(-c3cc(C)c(OC[C@@H](O)CO)c(CC)c3)no2)n1 [Example 65, (S)-3-{2-ethyl-4-[5-(6-ethyl-2-ethylamino-pyrimidin-4-yl)-[1,2,4]oxadiazol-3-yl]-6-methyl-phenoxy}-propane-1,2-diol]	-60 ± 4%
CCc1cc(-c2nc(-c3cc(C)nc(NC(C)C)n3)no2)cc(C)c1OC[C@@H](O)CNC(=O)CO [Example 85, (S)—N-(3-{2-Ethyl-4-[3-(2-isopropylamino-6-methyl-pyrimidin-4-yl)-[1,2,4]oxadiazol-5-yl]-6-methyl-phenoxy}-2-hydroxy-propyl)-2-hydroxy-acetamide]	-68 ± 1%
CCc1cc(-c2noc(-c3cc(C)nc(NC(C)C)n3)n2)cc(C)c1CCC(=O)NCCO [Example 138, 3-{2-ethyl-4-[5-(2-isopropylamino-6-methyl-pyrimidin-4-yl)-[1,2,4]oxadiazol-3-yl]-6-methyl-phenyl}-N-(2-hydroxy-ethyl)-propionamide]	-74 ± 1%
